Entries after “also recorded” stand apart in the source; their conditions may differ.
What was measured:
[1] = system: isolated perfused rat hearts; assay: Ex vivo coronary flow, Langendorff perfused isolated rat hearts; details: AR234960 1 μM
Procedure: Coronary flow was measured in male Mas^−/− and Mas^+/+ mice, and in male Sprague-Dawley rats using Langendorff perfused isolated hearts. Freshly isolated hearts were placed on a Langendorff apparatus (Harvard Apparatus) and perfused at a constant pressure of 80 mmHg with a modified Krebs-Henseleit buffer solution (Sigma K3753) and aerated with 95% oxygen and 5% carbon dioxide, pH 7.35-7.4. The temperature was maintained at 37° C. by surrounding the heart with a water-heated glassware chamber. Coronary flow was measured using a flow measurement system (Harvard Apparatus) which included the transit time flow meter and a flow probe built into an adaptor block located at the perfusate inflow port. Data were recorded continuously using an ISOHEART data acquisition system (Harvard Apparatus). After a 20-min equilibration period, Mas compounds were added to the perfusion buffer reservoir at the desired concentration (agonist AR234960 at 1 μM, or inverse agonist AR244555 at 5 μM) and coronary flow was recorded for 10 min
To determine the role of the Mas-Gq-PLC pathway in regulating coronary flow, the Mas inverse agonist AR244555 (5 μM) or the PLC inhibitor U-73122 (0.5 μM) was added to the perfusion buffer for 10 min and then the agonist AR234960 (1 μM) was added to the perfusion buffer. Coronary flow was recorded for another 10 min Changes in coronary flow induced by AR234960 were calculated as percentage of the coronary flow at 10 min following AR234960 treatment, relative to the coronary flow measured immediately prior to addition of AR234960. This protocol allowed for measurement of agonist mediated vasoconstrictor activity, and accounted for changes in baseline coronary flow due to inverse agonist treatment alone.
To determine whether Mas agonist-induced changes in coronary flow were endothelium-dependent, the responses in Langendorff perfused hearts were measured after chemical removal of endothelium with sodium deoxycholate. After a 20-min equilibration period, sodium deoxycholate was added to the perfusion buffer at 0.2 mg/mL for 3 min and then washed out for 10 min Mas compounds were added and coronary flow was recorded for 10 min Adenosine (1 μM), a coronary vasodilator that targets the endothelium, was used as a control to verify effective removal of endothelium.

human Mas receptor = molecular target: T1, human Mas receptor (Homo sapiens, UniProt P04201); assay: cAMP Dynamic2 HTRF assay, HEK293 cells stably expressing human Mas receptor; format: cell-based
T1 construct: expressed in transfected cells; host or cells: HEK293 (ATCC CRL-1573)
T1 sequence (P04201 1-325): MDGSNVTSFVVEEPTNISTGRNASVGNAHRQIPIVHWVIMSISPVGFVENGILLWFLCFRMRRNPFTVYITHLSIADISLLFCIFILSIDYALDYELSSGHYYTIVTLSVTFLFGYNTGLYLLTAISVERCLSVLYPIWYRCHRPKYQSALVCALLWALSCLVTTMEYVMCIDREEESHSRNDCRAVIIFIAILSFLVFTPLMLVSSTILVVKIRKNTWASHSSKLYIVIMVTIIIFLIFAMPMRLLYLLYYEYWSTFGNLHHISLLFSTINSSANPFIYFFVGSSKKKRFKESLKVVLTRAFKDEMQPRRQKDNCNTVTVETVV
Procedure: cAMP accumulation in HEK293 cells stably expressing human or rat Mas receptors was determined by the 384 well cAMP Dynamic2 Homogenous Time-Resolved Fluorescence (HTRF®) assay (CisBio Cat#62AM4PEB) following the manufacturer's protocol. Briefly, cells were plated at 30,000 or 1000 cells per well in 5 μL stimulation buffer (PBS containing 500 μM IBMX and 0.1% bovine serum albumin), 5 μL of Mas compounds diluted in PBS were added to each well and serial diluted cAMP standards were also added to corresponding wells at this step. For detecting […] activities, 10 μM forskolin was included with the compounds for a final concentration of 5 μM at the stimulation step. Following 1 h stimulation at room temperature, d2-labeled cAMP and anti-cAMP cryptate conjugate diluted in detection buffer (included in the kit) were added to cells sequentially at 5 μl per well. The plates were incubated further for 1 h at room temperature. Ratiometic measurements of fluorescence emission at 665 nm and 620 nm were obtained by Pherastar fluorometer (BMG Labtech) and cAMP levels in each well were calculated according to the standard curves on each plate. IC50 values were obtained by fitting data to a nonlinear curve-fitting program (GraphPad Software, Inc., La Jolla Calif.).

LPS induced TNFα = assay: LPS model for sepsis induction, serum TNFα ELISA in mice; format: in vivo, mouse
Procedure: Mice were treated intravenously with either 20% DMSO (vehicle), 1, 3 or 10 mg/kg Compound 170 in 20% DMSO. Alternatively animals were treated with 1 mg/kg IB-MECA in 0.1% DMSO as a positive control (n=6 per group). 1 hour after drug treatment, animals received 500 μg of LPS intraperitoneally Animals were bled 75 minutes after LPS treatment and the blood was spun down for serum. An ELISA for mouse TNFα (Invitrogen) was performed on 1:50 diluted samples the following day.

Compound | coronary flow in isolated perfused rat hearts ([1]; AR244555 5 μM, 10 min) | compound-mediated change in coronary flow in endothelium denuded hearts ([1]; after sodium deoxycholate, adenosine 1 μM) | IC50 (human Mas receptor; cAMP assay with forskolin, read-out: Gi coupling IC50) [nM] | forskolin stimulated cAMP levels (Mas-Gi activity) (human Mas receptor; cells stably expressing human or rat Mas receptor, 5 μM forskolin) | Suppression of TNFα induction compared with positive control (LPS induced TNFα; 10 mg/kg i.v., IB-MECA 1 mg/kg) | Suppression of TNFα induction (LPS induced TNFα; 1, 3 or 10 mg/kg i.v. 1 hour before 500 μg LPS i.p., serum 75 minutes after LPS)
COc1cc([N+](=O)[O-])ccc1S(=O)(=O)N1CC(CN2CCN(c3ccccn3)CC2)C(c2cccc(F)c2)C1 (stereo not drawn) [AR234960] | decrease in coronary flow; also recorded: significantly decreased | preserved | 719 ± 12 | dose dependent reduction |  | 
NC(=O)[C@H](CO)NCc1ccc(C(=O)Nc2ccc(Cl)cc2N2CCN(CCC(F)(F)F)CC2)c(F)c1F [Compound 170, (S)-4-((1-Amino-3-hydroxy-1-oxopropan-2-ylamino)methyl)-N-(4-chloro-2-(4-(3,3,3-trifluoropropyl)piperazin-1-yl)phenyl)-2,3-difluorobenzamide] |  |  |  |  | not statistically different from the positive control IB-MECA | significant to control treated animals at the 10 and 3 mg/kg dose; also recorded: suppression of TNFα induction

Reference: patent US20140309192A1, “MODULATORS OF THE G PROTEIN-COUPLED MAS RECEPTOR AND THE TREATMENT OF DISORDERS RELATED THERETO” (ARENA PHARMACEUTICALS, INC., priority 2011, published 2014)
